Laboratory results published in paper PMC10233823, “Conjugates of Aminoglycosides with Stapled Peptides as a Way to Target Antibiotic-Resistant Bacteria” (ACS Omega, 2023).
Converted amounts (≈) assume the structure as drawn. Like-named read-outs stand apart in the source and are kept apart here. Peptide text beside a SMILES is read from it. * marks the point of attachment. X2 = NC[C@@H]1O[C@H](O[C@H]2[C@@H](O)[C@H](O[C@@H]3[C@@H](O)[C@H](N)C[C@H](N)[C@H]3O[C@H]3O[C@H](CN)[C@@H](O)[C@H](O)[C@H]3N)O[C@@H]2CS*)[C@H](N)[C@@H](O)[C@@H]1O

Assays:
Assay in all cases: microbe, parasite or virus in culture
[1] = test system: S. aureus ATCC BAA1720 MRSA; type: cell-based, Staphylococcus aureus; details: MIC wells diluted in fresh MHB, 24 h, 37 °C
Experimental: (§1) The antibacterial activity of the conjugates was assessed by determining their minimum inhibitory concentration (MIC) and minimum bactericidal concentration (MBC) against Gram-negative E. coli (K12 MG 1655 and WR 3551/98) and Gram-positive S. aureus (ATCC 29213 and ATCC BAA1720 MRSA) strains (Table 1, Figures S16–S23).
(§2) The MBC values were determined by diluting wells from the MIC experiment plate in fresh MHB medium. Dilutions of 10-, 100-, and 1000-times were prepared for the MIC well and up to two-folds higher than MIC concentrations of a given compound. Dilutions were made on a transparent flat-bottom 96-well plate (Nest), which was then sealed and incubated for 24 h, at 37 °C with shaking. The growth of a given sample well was compared with GC and SC controls.

S. aureus ATCC 29213 [2] = type: cell-based, Staphylococcus aureus; details: 24 h, 37 °C
Experimental: as §1, §2

[3] = test system: S. aureus ATCC BAA1720 MRSA; type: cell-based, Staphylococcus aureus; details: S. aureus ATCC BAA1720 MRSA (NEO-resistant), MHB, 20 h, 37 °C with shaking, OD600
Experimental: as §1
(§3) The MIC values were determined as follows. Bacteria were first cultured overnight in 2 mL of lysogeny broth (LB, VWR Chemicals) at 37 °C with shaking. Next, 20 μL of overnight culture was transferred into 2 mL of […] (MHB, Difco) medium and further cultured at 37 °C with shaking until the culture reached OD600 = 0.3. Subsequently, the culture was diluted 1:100 in a fresh MHB medium, and aliquots of 50 μL were mixed with 50 μL of previously prepared dilutions of the tested compound in MHB on a transparent flat-bottom 96-well plate (Nest). The plate was then sealed with transparent foil (Titer-Tops) and incubated for 20 h, at 37 °C with shaking. Following incubation, optical density at 600 nm was measured using a Tecan Sunrise plate reader. Growth inhibition was determined by comparing the given sample with untreated culture (growth control—GC) with MHB alone (sterility control—SC) as an additional reference. The experiment was conducted in at least two biological replicates of two technical replicates each. Statistical significance was determined by the two-way ANOVA test using GraphPad Prism 9 software.

S. aureus ATCC 29213 [4] = type: cell-based, Staphylococcus aureus; details: 20 h, 37 °C with shaking, OD600
Experimental: as §1, §3

E. coli WR 3551/98 [5] = type: cell-based, Escherichia coli; details: 24 h, 37 °C, read-out: MBC
Experimental: as §1, §2

E. coli K12 MG1655 [6] = type: cell-based, Escherichia coli; details: MIC wells diluted 10-, 100-, 1000-times in fresh MHB, 24 h, 37 °C, bactericidal if no growth at 100- and 1000-times dilutions
Experimental: as §1, §2

E. coli WR 3551/98 [7] = type: cell-based, Escherichia coli; details: E. coli WR 3551/98 (AMK-resistant), MHB, 20 h, 37 °C with shaking, OD600
Experimental: as §1, §3

E. coli K12 MG1655 [8] = type: cell-based, Escherichia coli; details: MHB, 20 h, 37 °C with shaking, OD600, at least two biological replicates of two technical replicates
Experimental: as §1, §3

[9] = Staphylococcus aureus, ATCC29213, MIC wells diluted in fresh MHB, read-out: MBC
[10] = Staphylococcus aureus, ATCC29213, MHB
[11] = Escherichia coli, WR3551/98, MIC wells diluted in fresh MHB
[12] = Escherichia coli, read-out: MBC

SMILES | MBC ([1]; Staphylococcus aureus) [µM] | MBC (S. aureus ATCC 29213 [2]; [9]) [µM] | MIC ([3]; Staphylococcus aureus) [µM] | MIC (S. aureus ATCC 29213 [4]; [10]) [µM] | MBC (E. coli WR 3551/98 [5]; [11]) [µM] | MBC (E. coli K12 MG1655 [6]; [12]) [µM] | MIC (E. coli WR 3551/98 [7]) [µM] | MIC (E. coli WR 3551/98 [7]; Escherichia coli, WR3551/98) [µM] | MIC (E. coli K12 MG1655 [8]; Escherichia coli) [µM] | MBC [1] [µM] | MBC (S. aureus ATCC 29213 [2]; MIC wells diluted in fresh MHB, read-out: MBC) [µM] | MIC [3] [µM] | MIC (S. aureus ATCC 29213 [4]; MHB) [µM] | MBC (E. coli WR 3551/98 [5]; MIC wells diluted in fresh MHB) [µM] | MBC (E. coli K12 MG1655 [6]; read-out: MBC) [µM] | MIC (E. coli K12 MG1655 [8]) [µM] | MBC (S. aureus ATCC 29213 [2]; MIC wells diluted in fresh MHB) [µM] | MBC (E. coli K12 MG1655 [6]) [µM]
NCC[C@H](O)C(=O)N[C@@H]1C[C@H](N)[C@@H](O[C@H]2O[C@H](CN)[C@@H](O)[C@H](O)[C@H]2O)[C@H](O)[C@H]1O[C@H]1O[C@H](CO)[C@@H](O)[C@H](N)[C@H]1O [amikacin (AMK), amikacin, reference compound] | ≥ 32 | 8 (≈ 4.68 µg/mL) | 32 (≈ 18.7 µg/mL) | 8 (≈ 4.68 µg/mL) | > 32 | 8 to 16 (≈ 4.68 to 9.37 µg/mL) | >32 | > 32 | 4 (≈ 2.34 µg/mL) |  |  |  |  |  |  |  |  | 
CC[C@H](C)[C@H](NC(=O)[C@H](CCCNC(=N)N)NC(=O)[C@H](CCCCN)NC(=O)[C@H](CC(C)C)NC(=O)[C@H](CC(C)C)NC(=O)CNC(=O)[C@@H](N)CSSC[C@H]1O[C@@H](O[C@@H]2[C@@H](O)[C@H](N)C[C@H](N)[C@H]2O[C@H]2O[C@H](CN)[C@@H](O)[C@H](O)[C@H]2N)[C@H](O)[C@@H]1O[C@H]1O[C@@H](CN)[C@@H](O)[C@H](O)[C@H]1N)C(=O)N[C@@H](CCCCN)C(=O)N[C@H](C(=O)N[C@@H](CC(C)C)C(=O)N[C@@H](CC(C)C)C(N)=O)[C@@H](C)O [NEO-SS-anoplin] (H-C(X2)GLLKRIKTLL-NH2) |  |  |  |  |  |  | 8 (≈ 15.1 µg/mL) |  |  | >32 | 8 (≈ 15.1 µg/mL) | >32 | 4 (≈ 7.54 µg/mL) | 16 (≈ 30.2 µg/mL) | 8 (≈ 15.1 µg/mL) | 8 (≈ 15.1 µg/mL) |  | 
NC[C@@H]1O[C@H](O[C@H]2[C@@H](O)[C@H](O[C@@H]3[C@@H](O)[C@H](N)C[C@H](N)[C@H]3O[C@H]3O[C@H](CN)[C@@H](O)[C@H](O)[C@H]3N)O[C@@H]2CO)[C@H](N)[C@@H](O)[C@@H]1O [neomycin (NEO), neomycin, reference compound] | > 32 | 2 (≈ 1.23 µg/mL) | > 32 | 1 (≈ 0.615 µg/mL) | 8 (≈ 4.92 µg/mL) | 4 (≈ 2.46 µg/mL) |  | 4 (≈ 2.46 µg/mL) | 4 (≈ 2.46 µg/mL) |  |  |  |  |  |  |  |  | 
CC[C@H](C)[C@H](NC(=O)[C@H](CCCNC(=N)N)NC(=O)[C@H](CCCCN)NC(=O)[C@H](CC(C)C)NC(=O)[C@H](CC(C)C)NC(=O)CNC(=O)CCCCCCCCc1cn(C[C@H]2O[C@@H](O[C@@H]3[C@@H](O)[C@H](N)C[C@H](N)[C@H]3O[C@H]3O[C@H](CN)[C@@H](O)[C@H](O)[C@H]3N)[C@H](O)[C@@H]2O[C@H]2O[C@@H](CN)[C@@H](O)[C@H](O)[C@H]2N)nn1)C(=O)N[C@@H](CCCCN)C(=O)N[C@H](C(=O)N[C@@H](CC(C)C)C(=O)N[C@@H](CC(C)C)C(N)=O)[C@@H](C)O [NEO-anoplin] (HELM PEPTIDE1{[NC[C@@H]1O[C@H](O[C@H]2[C@@H](O)[C@H](O[C@@H]3[C@@H](O)[C@H](N)C[C@H](N)[C@H]3O[C@H]3O[C@H](CN)[C@@H](O)[C@H](O)[C@H]3N)O[C@@H]2Cn2cc(CCCCCCCCC(=O)[*:2])nn2)[C@H](N)[C@@H](O)[C@@H]1O].G.L.L.K.R.I.K.T.L.L.[am]}$$$$V2.0) |  |  |  |  |  |  | 16 (≈ 31.3 µg/mL) |  |  | 32 (≈ 62.6 µg/mL) |  | 32 (≈ 62.6 µg/mL) | 16 (≈ 31.3 µg/mL) | 16 (≈ 31.3 µg/mL) |  | 8 (≈ 15.7 µg/mL) | 16 to 32 | 8 to 16
